Measurements: patent publication US9012443B2 (Amgen Inc., priority 2011, dated 2015)
Read-outs that look alike come from different tables or passages of the source.

Biological target: Nav 1.7 (Homo sapiens (Human), UniProt Q15858)
Assay: Nav 1.7 IWQ in vitro assay (IonWorks Quattro population patch-clamp)
Assay type: cell-based
Details: for IC50: 293 cells stably transfected with Nav 1.7
Procedure: Nav 1.7 or Nav 1.5 IWQ In Vitro Assay
293 Cells stably transfected with either Nav 1.7 or Nav 1.5 were recorded in population patch-clamp mode with the IonWorks® Quattro automated electrophysiology system in accordance with the manufacturer's specifications (Molecular Devices, LLC, Sunnyvale, Calif.). Sodium channel currents were measured in response to a train of depolarizations that induced successively greater inactivation.
Cells were then left unclamped for a period of 3 to 8 minutes while a single concentration of test compound was added. Cells were then reclamped and put through the same voltage protocol. Current at the end of the 26th pulse to −20 mV was subtracted from the peak current evoked by the 26th pulse to −20 mV to correct for leak current. Percent block was calculated for each concentration in duplicate, and IC50 curves were fitted to percent block as a function of concentration.

[1] = first part of table, read-out: Nav 1.7 IWQ IC50
[2] = second part of table, read-out: Nav1.7 IWQ IC50 IP

Chain of Nav 1.7 (Q15858 whole entry): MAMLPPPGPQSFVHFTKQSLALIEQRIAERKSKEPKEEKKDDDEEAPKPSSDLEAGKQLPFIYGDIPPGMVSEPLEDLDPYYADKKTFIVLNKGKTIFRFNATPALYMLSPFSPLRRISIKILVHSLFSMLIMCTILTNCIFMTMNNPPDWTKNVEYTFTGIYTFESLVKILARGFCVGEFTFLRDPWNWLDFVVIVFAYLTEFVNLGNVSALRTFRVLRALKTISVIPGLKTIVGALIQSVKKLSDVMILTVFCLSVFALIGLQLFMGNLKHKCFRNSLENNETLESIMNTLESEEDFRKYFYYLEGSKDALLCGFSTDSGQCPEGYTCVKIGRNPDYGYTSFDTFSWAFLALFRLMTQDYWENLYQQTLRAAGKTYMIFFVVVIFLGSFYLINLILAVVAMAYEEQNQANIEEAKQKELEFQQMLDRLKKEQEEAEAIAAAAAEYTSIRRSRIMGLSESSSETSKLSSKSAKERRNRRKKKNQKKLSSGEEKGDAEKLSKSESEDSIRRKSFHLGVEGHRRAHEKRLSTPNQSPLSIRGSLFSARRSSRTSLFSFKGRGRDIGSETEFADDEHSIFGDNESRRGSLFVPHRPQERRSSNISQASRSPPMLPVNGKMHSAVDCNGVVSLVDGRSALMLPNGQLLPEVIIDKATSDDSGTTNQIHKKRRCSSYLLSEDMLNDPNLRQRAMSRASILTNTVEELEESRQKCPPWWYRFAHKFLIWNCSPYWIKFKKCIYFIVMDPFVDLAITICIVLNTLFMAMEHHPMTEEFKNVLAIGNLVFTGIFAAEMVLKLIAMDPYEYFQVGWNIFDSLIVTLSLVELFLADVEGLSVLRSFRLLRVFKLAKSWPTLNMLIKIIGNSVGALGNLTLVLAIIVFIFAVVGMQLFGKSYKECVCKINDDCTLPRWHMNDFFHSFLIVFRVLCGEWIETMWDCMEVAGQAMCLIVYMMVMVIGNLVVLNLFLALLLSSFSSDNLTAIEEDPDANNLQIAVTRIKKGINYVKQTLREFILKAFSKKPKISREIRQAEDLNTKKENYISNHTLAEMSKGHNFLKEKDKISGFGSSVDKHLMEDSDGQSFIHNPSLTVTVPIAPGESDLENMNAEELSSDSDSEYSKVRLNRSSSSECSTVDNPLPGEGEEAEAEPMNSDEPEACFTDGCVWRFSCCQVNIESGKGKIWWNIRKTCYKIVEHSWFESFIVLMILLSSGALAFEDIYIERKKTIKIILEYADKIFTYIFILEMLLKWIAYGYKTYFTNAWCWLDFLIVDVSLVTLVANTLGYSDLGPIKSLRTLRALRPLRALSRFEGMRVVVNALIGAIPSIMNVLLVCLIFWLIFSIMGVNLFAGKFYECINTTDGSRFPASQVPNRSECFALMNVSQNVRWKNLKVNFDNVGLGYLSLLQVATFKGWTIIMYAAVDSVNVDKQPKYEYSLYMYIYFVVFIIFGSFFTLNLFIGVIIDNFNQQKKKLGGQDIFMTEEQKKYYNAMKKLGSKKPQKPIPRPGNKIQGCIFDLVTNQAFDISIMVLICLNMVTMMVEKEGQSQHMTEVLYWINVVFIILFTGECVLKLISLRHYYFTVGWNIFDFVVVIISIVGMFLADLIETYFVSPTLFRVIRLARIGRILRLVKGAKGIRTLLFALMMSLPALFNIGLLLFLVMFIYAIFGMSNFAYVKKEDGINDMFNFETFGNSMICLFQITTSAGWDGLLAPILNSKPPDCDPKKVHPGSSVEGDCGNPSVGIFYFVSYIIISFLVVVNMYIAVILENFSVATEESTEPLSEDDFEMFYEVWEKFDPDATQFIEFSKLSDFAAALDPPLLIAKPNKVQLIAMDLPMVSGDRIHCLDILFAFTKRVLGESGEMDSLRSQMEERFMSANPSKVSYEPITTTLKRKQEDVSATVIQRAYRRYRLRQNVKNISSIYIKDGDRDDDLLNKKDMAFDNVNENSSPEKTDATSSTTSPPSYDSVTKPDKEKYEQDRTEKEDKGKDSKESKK

SMILES	IC50 [1]	IC50 [2]	Nav1.7 Single Point Data IWQ (at […]) (%)	also measured
CN1CC(n2nccc2-c2cc(C(F)(F)F)ccc2-c2cccc3cc(S(=O)(=O)Nc4nccs4)ccc23)C1 [Example 82]	70 nM			
N#CC1(COc2nccc3cc(S(=O)(=O)Nc4ccncn4)ccc23)CC1 [Example 135, 1-((1-CYANOCYCLOPROPYL)METHOXY)-N-(PYRIMIDIN-4-YL)ISOQUINOLINE-6-SULFONAMIDE]		3300 nM		
O=S(=O)(Nc1ncns1)c1ccc2c(-c3ccc(C(F)(F)F)cc3-c3cn[nH]c3)cccc2c1 [Example 21]	20 nM			
O=S(=O)(Nc1nccs1)c1ccc2c(N3CCCCC3c3cccnc3)ncnc2c1 (centres unmarked) [Example 536, 4-(2-(PYRIDIN-3-YL)PIPERIDIN-1-YL)-N-(THIAZOL-2-YL)QUINAZOLINE-7-SULFONAMIDE]			28.3%	
Cn1ccnc1-c1nccc2cc(S(=O)(=O)Nc3nccs3)ccc12 [Example 315, 1-(1-METHYL-1H-IMIDAZOL-2-YL)-N-(THIAZOL-2-YL)ISOQUINOLINE-6-SULFONAMIDE 2,2,2-TRIFLUOROACETATE]		> 10000 nM	37%	
COc1cc(Cl)ccc1-c1cccc2cc(S(=O)(=O)Nc3nccs3)ccc12 [Example 46]	36 nM			
COc1cc(C(F)(F)F)ccc1-c1ncnc2cc(S(=O)(=O)NC3=NCCS3)ccc12 [Example 520, N-(4,5-DIHYDROTHIAZOL-2-YL)-4-(2-METHOXY-4-(TRIFLUOROMETHYL)PHENYL)QUINAZOLINE-7-SULFONAMIDE]			<20%	
COc1cc(C(F)(F)F)ccc1-c1nccc2cc(S(=O)(=O)NC(C)=O)ccc12 [Example 314, N-((1-(2-METHOXY-4-(TRIFLUOROMETHYL)PHENYL)ISOQUINOLIN-6-YL)SULFONYL)ACETAMIDE]		> 10000 nM	39%	
Cc1cnc(OCc2ccccc2)c(-c2nccc3cc(S(=O)(=O)Nc4nccs4)ccc23)c1 [Example 380, 1-(2-(BENZYLOXY)-5-METHYLPYRIDIN-3-YL)-N-(THIAZOL-2-YL)ISOQUINOLINE-6-SULFONAMIDE]			40%	
COc1cnccc1NS(=O)(=O)c1ccc2c(-c3ccc(C(F)(F)F)cc3Cl)nccc2c1 [Example 52, 1-(2-CHLORO-4-(TRIFLUOROMETHYL)PHENYL)-N-(3-METHOXYPYRIDIN-4-YL)ISOQUINOLINE-6-SULFONAMIDE]				inhibition at […] (read-out: Nav 1.7 IWQ percent inhibition at […], read-out: Nav 1.7 IWQ percent inhibition at 4.9 μM): 16%
O=S(=O)(Nc1ccncn1)c1ccc2c(OCc3ccc(-n4ccnc4)cc3)nccc2c1 [Example 301, 1-((4-(1H-IMIDAZOL-1-YL)BENZYL)OXY)-N-(PYRIMIDIN-4-YL)ISOQUINOLINE-6-SULFONAMIDE]		> 10000 nM	40%	
Cc1cnc(OCC2CCC2)c(-c2nccc3cc(S(=O)(=O)Nc4nccs4)ccc23)c1 [Example 381, 1-(2-(CYCLOBUTYLMETHOXY)-5-METHYLPYRIDIN-3-YL)-N-(THIAZOL-2-YL)ISOQUINOLINE-6-SULFONAMIDE]			26.5%	
Cn1nccc1-c1cc(C(F)(F)F)ccc1-c1cccc2cc(S(=O)(=O)Nc3ccncn3)ccc12 [Example 74]	80 nM			
O=S(=O)(Nc1ncns1)c1ccc2c(N3CCCC3c3ccccc3)cccc2c1 (centres unmarked) [Example 83]	10 nM			
Cc1cc(Cl)ccc1-c1nccc2cc(S(=O)(=O)Nc3ncns3)ccc12 [Example 62]	90 nM			
CN1CC=C(c2cc(C(F)(F)F)ccc2-c2nccc3cc(S(=O)(=O)Nc4nccs4)ccc23)CC1 [Example 72, 1-(2-(1-METHYL-1,2,3,6-TETRAHYDROPYRIDIN-4-YL)-4-(TRIFLUOROMETHYL)PHENYL)-N-(THIAZOL-2-YL)ISOQUINOLINE-6-SULFONAMIDE]	60 nM			
O=S(=O)(Nc1ccncn1)c1ccc2c(N3CCCC(c4cccc(F)c4)C3)nccc2c1 (centres unmarked) [Example 402, 1-(3-(3-FLUOROPHENYL)PIPERIDIN-1-YL)-N-(PYRIMIDIN-4-YL)ISOQUINOLINE-6-SULFONAMIDE]			36.4%	
COC(=O)C1CN(c2cccc3cc(S(=O)(=O)Nc4ncns4)ccc23)CCO1 (centres unmarked) [Example 17, METHYL 4-(6-(N-(1,2,4-THIADIAZOL-5-YL)SULFAMOYL)NAPHTHALEN-1-YL)MORPHOLINE-2-CARBOXYLATE]	4560 nM			
O=S(=O)(Nc1ccncn1)c1ccc2c(Oc3ccc(Cl)c(Cl)c3)nccc2c1 [Example 193, 1-(3,4-DICHLOROPHENOXY)-N-(PYRIMIDIN-4-YL)ISOQUINOLINE-6-SULFONAMIDE]		4980 nM		
O=S(=O)(Nc1ncns1)c1ccc2c(-c3ccc(Cl)cc3OC(F)F)cccc2c1 [Example 24]	30 nM			
O=S(=O)(Nc1nccs1)c1ccc2c(-c3ccc(C(F)(F)F)cc3C3=CCNCC3)cccc2c1 [Example 77]	70 nM			

SMILES	IC50 [1]	IC50 [2]	Nav1.7 Single Point Data IWQ (at […]) (%)	also measured
COc1cc(-c2cnn(C)c2)ccc1-c1nccc2cc(S(=O)(=O)Nc3ccncn3)ccc12 [Example 454, 1-(2-METHOXY-4-(1-METHYL-1H-PYRAZOL-4-YL)PHENYL)-N-(PYRIMIDIN-4-YL)ISOQUINOLINE-6-SULFONAMIDE]			<20%	
O=S(=O)(Nc1ccncn1)c1ccc2c(OCc3ccc(N4CCOCC4)cc3)nccc2c1 [Example 304, 1-((4-MORPHOLINOBENZYL)OXY)-N-(PYRIMIDIN-4-YL)ISOQUINOLINE-6-SULFONAMIDE]		> 10000 nM	32%	
O=S(=O)(Nc1ncns1)c1ccc2c(-c3ccc(C(F)(F)F)cc3Cl)nccc2c1 [Example 56, 1-(2-CHLORO-4-(TRIFLUOROMETHYL)PHENYL)-N-(1,2,4-THIADIAZOL-5-YL)ISOQUINOLINE-6-SULFONAMIDE]	60 nM			
O=S(=O)(Nc1ccncn1)c1ccc2c(OCC(F)(F)C3CCOCC3)nccc2c1 [Example 299, 1-(2,2-DIFLUORO-2-(TETRAHYDRO-2H-PYRAN-4-YL)ETHOXY)-N-(PYRIMIDIN-4-YL)ISOQUINOLINE-6-SULFONAMIDE]		> 10000 nM	49%	
Cn1cc(CCOc2nccc3cc(S(=O)(=O)Nc4ccncn4)ccc23)cn1 [Example 305, 1-(2-(1-METHYL-1H-PYRAZOL-4-YL)ETHOXY)-N-(PYRIMIDIN-4-YL)ISOQUINOLINE-6-SULFONAMIDE]		> 10000 nM	24%	
CN1CCN(Cc2cccc(-c3nccc4cc(S(=O)(=O)Nc5ccncn5)ccc34)c2)CC1 [Example 431, 1-(3-((4-METHYLPIPERAZIN-1-YL)METHYL)PHENYL)-N-(PYRIMIDIN-4-YL)ISOQUINOLINE-6-SULFONAMIDE]			20.2%	
COc1cnccc1-c1nccc2cc(S(=O)(=O)Nc3ccncn3)ccc12 [Example 169, 1-(3-METHOXYPYRIDIN-4-YL)-N-(PYRIMIDIN-4-YL)ISOQUINOLINE-6-SULFONAMIDE]		5170 nM		
CN1CC=C(c2cc(C(F)(F)F)ccc2-c2cccc3cc(S(=O)(=O)Nc4nccs4)ccc23)CC1 [Example 78]	90 nM			
O=S(=O)(Nc1ncns1)c1ccc2c(N3CCOC(c4ccccc4)C3)cccc2c1 (single isomer, unassigned) [14 (isomer 1), 5-(2-phenylmorpholino)-N-(1,2,4-thiadiazol-5-yl)naphthalene-2-sulfonamide]	520 nM			
O=S(=O)(Nc1ccncn1)c1ccc2c(-c3cccc4ccsc34)nccc2c1 [Example 162, 1-(BENZO[B]THIOPHEN-7-YL)-N-(PYRIMIDIN-4-YL)ISOQUINOLINE-6-SULFONAMIDE]		4120 nM		
Cc1cccc(CCCOc2nccc3cc(S(=O)(=O)Nc4ccncn4)ccc23)n1 [Example 300, 1-(3-(6-METHYLPYRIDIN-2-YL)PROPOXY)-N-(PYRIMIDIN-4-YL)ISOQUINOLINE-6-SULFONAMIDE]		> 10000 nM	25%	
COc1cc(C(F)(F)F)ccc1-c1cccc2cc(S(=O)(=O)Nc3nccs3)ccc12 [Example 41]	290 nM			
Cc1cnc(OCCN(C)C)c(-c2nccc3cc(S(=O)(=O)Nc4ccncn4)ccc23)c1 [Example 382, 1-(2-(2-(DIMETHYLAMINO)ETHOXY)-5-METHYLPYRIDIN-3-YL)-N-(PYRIMIDIN-4-YL)ISOQUINOLINE-6-SULFONAMIDE]			27.8%	
O=S(=O)(Nc1nccs1)c1ccc2c(-c3ccc(C(F)(F)F)cc3-c3ccnn3C3CNC3)cccc2c1 [Example 81]	40 nM			
Cc1c(-c2nccc3cc(S(=O)(=O)Nc4ccncn4)ccc23)ccc2c1cnn2C [Example 307]		> 10000 nM	40%	
Cn1ncc2cccc(-c3nccc4cc(S(=O)(=O)Nc5ccncn5)ccc34)c21 [Example 306, 1-(1-METHYL-1H-INDAZOL-7-YL)-N-(PYRIMIDIN-4-YL)ISOQUINOLINE-6-SULFONAMIDE]		> 10000 nM	35%	
O=S(=O)(Nc1nccs1)c1ccc2c(N3CCN(c4ccc(Cl)c(Cl)c4)CC3)nccc2c1 [Example 247, 1-(4-(3,4-DICHLOROPHENYL)PIPERAZIN-1-YL)-N-(THIAZOL-2-YL)ISOQUINOLINE-6-SULFONAMIDE]			35%	
COc1cc(OC)c(-c2nccc3cc(S(=O)(=O)Nc4ncns4)ccc23)c(OC)c1 [Example 60, N-(1,2,4-THIADIAZOL-5-YL)-1-(2,4,6-TRIMETHOXYPHENYL)ISOQUINOLINE-6-SULFONAMIDE]	1560 nM			
Cc1ccc(-c2cccc3cc(S(=O)(=O)Nc4ncns4)ccc23)c(Cl)c1 [Example 6]	340 nM			
O=S(=O)(Nc1ncns1)c1ccc2c(-c3ccc(C(F)(F)F)cc3O)nccc2c1 [Example 58, 1-(2-HYDROXY-4-(TRIFLUOROMETHYL)PHENYL)-N-(1,2,4-THIADIAZOL-5-YL)ISOQUINOLINE-6-SULFONAMIDE]	600 nM			
